Measured values as given in EP4635958A1, “PYRIMIDINE-CONTAINING POLYCYCLIC DERIVATIVE INHIBITOR, AND PREPARATION METHOD THEREFOR AND USE THEREOF” (Shanghai Hansoh Biomedical Co., Ltd., priority 2022, dated 2024).
Counter-ions that a name gives are not always drawn. Like-named read-outs stand apart in the source and are kept apart here.

Columns and labels:
AsPC-1 = assay: Inhibition of proliferation of KRAS G12D mutant tumor cell line AsPC-1 (CellTiter-Glo); format: cell-based
Procedure, shortened: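 KRAS G12D-mutant AsPC-1 cells plated overnight at 37 °C/5% CO2, then exposed to serial compound dilutions (DMSO/medium, vehicle control) for about 72 h. Viability read by CellTiter-Glo luminescence; inhibition rate vs concentration fitted by nonlinear regression for IC50.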

GP2D = assay: Inhibition of proliferation of KRAS G12D mutant tumor cell line GP2D (CellTiter-Glo); details: read-out: GP2D IC50
Protocol: Experimental method: When SNU-1, HPAF-II, Panc0403, AsPC-1 or GP2D cells were cultured to the appropriate confluence, and the SNU-1, HPAF-II, Panc0403, AsPC-1 or GP2D cells were collected. The cells were adjusted to the appropriate cell density using complete culture medium, the cell suspension was plated onto a 96-well plate at 90 µL per well, and the plate was placed in the incubator at 37°C and 5% CO2 for adherent culture overnight. Solutions of the compound with different concentrations were formulated using DMSO and culture medium. A vehicle control was set up. […] Then, CellTiter-Glo solution was added, and the obtained mixture was shaken and mixed evenly, incubated in the dark for 10 min, and read with a BioTek Synergy H1 microplate reader. […] Experimental data processing method: The luminescence signal value was used to calculate the inhibition rate. Graphpad Prism software was used to fit the concentration and inhibition rate to a nonlinear regression curve, so as to obtain the IC50 value.

p-ERK in AGS cells = assay: Inhibition of p-ERK in AGS cells (LANCE Ultra phospho-ERK1/2 kit); format: cell-based; details: Homo sapiens, AGS, 2 h, read-out: AGS_pERK IC50
Protocol: 1. Experimental objective: The inhibition activity of the example compounds on the phosphorylated ERK level in KRAS G12D mutant cells AGS was determined. 2. Experimental instruments: • 2.1 Instruments: Envison; Pipette (Eppendorf & Rainin) • 2.2 Reagents: AGS cells were purchased from COBIOER BIOSCIENCES CO., LTD, with a catalog number of CBP60476; Phosphorylated ERK1/2 (T202-Y204) LANCE Ultra Cellular Detection Kit was purchased from PerkinElmer, with a catalog number of TRF4000M; RPMI 1640 was purchased from Gibco, with a catalog number of 22400071; FBS was purchased from Gibco, with a catalog number of 10091148; PBS was purchased from Gibco, with a catalog number of 10010023; trypsin was purchased from Gibco, with a catalog number of 25200056; cell culture plates were purchased from Corning Company, with a catalog number of 3610; White opaque OptiPlate™-384 plates were purchased from PerkinElmer, with a catalog number of 6007290. 3. Experimental method: When AGS cells were cultured to appropriate confluence, the AGS cells were collected, and the cell density was adjusted to 4 × 10^5/mL using complete culture medium. The cell suspension was plated onto a 96-well plate at 100 µL per well, and the plate was placed in the incubator at 37°C and 5% CO2 for adherent culture overnight. Solutions of the compound with different concentrations were formulated using DMSO and complete culture medium, and a vehicle control was set up. The solutions of the compound were added to the 96-well plate at 25 µL per well, and the plate was placed in the incubator at 37°C and 5% CO2 for further culture for 2 h. Then, the supernatant of the cell culture plate was discarded, 50 µL of lysis buffer was added to each well, the cells were lysed at room temperature under shaking for 30 min, then placed in a centrifuge and centrifuged at 1000 rpm for 1 min. 15 µL of supernatant was transferred to a 384-well plate, 5 µL of detection mixture was added to each well (Eu-labeled anti-ERK1/2 (T202-Y204) Antibody at a final detection concentration of 0.5 nM and ULight labeled anti-ERK1/2 Antibody at a final detection concentration of 5 nM), centrifuged at 1000 rpm for 1 min, mixed evenly, and reacted at room temperature overnight. The plate was read using Envison and the signal values at the emission wavelengths of 620 nm and 665 nm were detected using a time-resolved fluorescence program. 4. […] Graphpad Prism software was used to fit the concentration and inhibition rate to a nonlinear regression curve, so as to obtain the IC50 value. Table 5: Inhibition activity of the compounds on p-ERK in AGS cells

[1] = Plasma stability test, human plasma; format: in vitro ADME; details: for half-life: read-out: t1/2 (converted);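 for all read-outs here: test compound incubated in human plasma, quantified by LC-MS/MS (positive-ion ESI, MRM) against an internal standard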
Protocol: Liquid chromatography-mass spectrometer, centrifuge, vortexer, pipette, continuous dispenser, 96-well plate, 50% methanol aqueous solution, acetonitrile solution containing internal standard, blank matrix (plasma of rat, dog, or human), Propantheline (propantheline bromide), Mevinolin (lovastatin), and test compound.
After whole blood was collected from animals or humans, it was placed in a test tube containing an anticoagulant and centrifuged at 3500 rpm for 10 min to collect the upper pale yellow plasma.
The compound was weighed and the stock solution was formulated with DMSO and the working solution was formulated with 100 mM phosphate buffer.
• Instrument: API4000 liquid chromatography-mass spectrometer, AB Company, USA; • the ion source was electrospray ionization source (ESI); • drying gas (N2) temperature was 500°C; • electrospray voltage was 5500V; • the detection method was positive ion detection; • the scanning method was selected reaction monitoring (MRM); • the scanning time was 0.1s.

[2] = Homo sapiens, ASPC1, about 72 h

Molecule: C#Cc1c(F)ccc2cc(O)cc(-c3nc4c5c(nc(OCC6(CN7CCC(=NOC)CC7)CC6)nc5c3F)N3C[C@H]5CC[C@H](N5)[C@H]3[C@H](C)O4)c12 [Example 35-1, 1-((1-((((5S,5aS,6S,9R)-2-(8-ethynyl-7-fluoro-3-hydroxynaphthalen-1-yl)-1-fluoro-5-methyl-5a,6,7,8,9,10-hexahydro-5H-4-oxa-3,10a,11,13,14-pentaaza-6,9-methylenenaphtho[1,8-ab]heptalen-12-yl)oxo)methyl)cyclopropyl)methyl)piperidin-4-one O-methyloxime formate]
- IC50 (AsPC-1; [2]): 3.8 nM
- IC50 (GP2D; Homo sapiens, GP2d, 72 h): 0.21 nM
- IC50 (p-ERK in AGS cells): 2.7 nM

Molecule: [2H]C([2H])(Oc1nc2c3c(nc(-c4cc(O)cc5ccc(F)c(C#C)c45)c(F)c3n1)O[C@@H](C)[C@@H]1[C@@H]3CC[C@H](CN21)N3)C1(C([2H])([2H])N2CCC(=CF)CC2)CC1 [Example 291, 5-ethynyl-6-fluoro-4-((5S,5aS,6S,9R)-1-fluoro-12-((1-((4-(fluoromethylene)piperidin-1-yl)methyl-d2)cyclopropyl)methoxy-d2)-5-methyl-5a,6,7,8,9,10-hexahydro-5H-4-oxa-3,10a,11,13,14-pentaaza-6,9-methylnaphtho[1,8-ab]hept-2-yl)naphthalen-2-ol]
- Remaining rate (%) 0 min ([1]; Human plasma, 37°C, 0 min): 100.00%
- Remaining rate (%) 15 min ([1]; Human plasma, 37°C, 15 min): 102.43%
- Remaining rate (%) 30 min ([1]; Human plasma, 37°C, 30 min): 95.46%
- Remaining rate (%) 60 min ([1]; Human plasma, 37°C, 60 min): 105.44%
- Remaining rate (%) 120 min ([1]; Human plasma, 37°C, 120 min): 96.68%
- half-life ([1]; Human plasma, 37°C): 115 h
- IC50 (AsPC-1; [2]): 4.6 nM
- IC50 (GP2D; Homo sapiens, GP2d, 72 h): 0.15 nM
- IC50 (p-ERK in AGS cells): 2.3 nM

Molecule: C#Cc1c(F)ccc2cc(O)cc(-c3nc4c5c(nc(OCC6(CN7CCC(=CF)CC7)CC6)nc5c3F)N3C[C@H]5CC[C@H](N5)[C@H]3[C@H](C)O4)c12 [Example 129, 5-ethynyl-6-fluoro-4-((5S,5aS,6S,9R)-1-fluoro-12-((1-((4-(fluoromethylene)piperidin-1-yl)methyl)cyclopropyl)methoxy)-5-methyl-5a,6,7,8,9,10-hexahydro-5H-4-oxa-3,10a,11,13,14-pentaaza-6,9-methylnaphtho[1,8-ab]hept-2-yl)naphthalen-2-ol]
- t1/2 ([1]; Human plasma, 37°C): ∞
- Remaining rate (%) 0 min ([1]; Human plasma, 37°C, 0 min): 100.00%
- Remaining rate (%) 15 min ([1]; Human plasma, 37°C, 15 min): 109.00%
- Remaining rate (%) 30 min ([1]; Human plasma, 37°C, 30 min): 97.59%
- Remaining rate (%) 60 min ([1]; Human plasma, 37°C, 60 min): 101.54%
- Remaining rate (%) 120 min ([1]; Human plasma, 37°C, 120 min): 105.91%
- IC50 (AsPC-1; [2]): 3.6 nM
- IC50 (GP2D; Homo sapiens, GP2d, 72 h): 0.17 nM
- IC50 (p-ERK in AGS cells): 2.4 nM

Molecule: [2H]C([2H])([2H])[C@@H]1Oc2nc(-c3cc(O)cc4ccc(F)c(C#C)c34)c(F)c3nc(OCC4(CN5CCC(=CF)CC5)CC4)nc(c23)N2C[C@H]3CC[C@H](N3)[C@@H]12 [Example 164]
- Remaining rate (%) 0 min ([1]; Human plasma, 37°C, 0 min): 100.00%
- Remaining rate (%) 15 min ([1]; Human plasma, 37°C, 15 min): 97.48%
- Remaining rate (%) 30 min ([1]; Human plasma, 37°C, 30 min): 91.02%
- Remaining rate (%) 60 min ([1]; Human plasma, 37°C, 60 min): 93.68%
- Remaining rate (%) 120 min ([1]; Human plasma, 37°C, 120 min): 89.66%
- half-life ([1]; Human plasma, 37°C): 30.3 h
- IC50 (AsPC-1; [2]): 6.6 nM
- IC50 (GP2D; Homo sapiens, GP2d, 72 h): 0.32 nM
- IC50 (p-ERK in AGS cells): 3.6 nM

Molecule: CON=C1CCN(CC2(COc3nc4c5c(nc(-c6cc(N)cc(Cl)c6C(F)(F)F)c(F)c5n3)O[C@@H](C)[C@@H]3[C@@H]5CC[C@H](CN43)N5)CC2)CC1 [Example 337, 1-((1-((((5S,5aS,6S,9R)-2-(5-amino-3-chloro-2-(trifluoromethyl)phenyl)-1-fluoro-5-methyl-5a,6,7,8,9,10-hexahydro-5H-4-oxa-3,10a,11,13,14-pentaaza-6,9-methylnaphtho[1,8-ab]heptene-12-yl)oxy)methyl)cyclopropyl)methyl)piperidin-4-one O-methyloxime]
- IC50 (AsPC-1; [2]): 1.2 nM
- IC50 (GP2D; Homo sapiens, GP2d, 72 h): 0.11 nM
- IC50 (p-ERK in AGS cells): 4.6 nM

Molecule: [2H]C([2H])([2H])[C@@H]1Oc2nc(-c3cc(N)cc(Cl)c3C(F)(F)F)c(F)c3nc(OCC4(CN5CCC(=NOC)CC5)CC4)nc(c23)N2C[C@H]3CC[C@H](N3)[C@@H]12 [Example 339]
- IC50 (AsPC-1; [2]): 3.5 nM
- IC50 (GP2D; Homo sapiens, GP2d, 72 h): 0.1 nM
- IC50 (p-ERK in AGS cells): 4.4 nM

Molecule: C#Cc1c(F)ccc2cc(O)cc(-c3nc4c5c(nc(OCC6(CN7CCC(=C(F)F)CC7)CC6)nc5c3F)N3C[C@H]5CC[C@H](N5)[C@H]3CO4)c12 [Example 1-1, 4-((5aS,6S,9R)-12-((1-((4-(difluoromethylene)piperidin-1-yl)methyl)cyclopropyl)methoxy)-1-fluoro-5a,6,7,8,9,10-hexahydro-5H-4-oxa-3,10a,11,13,14-pentaaza-6,9-methylenenaphtho[1,8-ab]heptalene-2-yl)-5-ethynyl-6-fluoronaphthalen-2-ol]
- Remaining rate (%) 0 min ([1]; Human plasma, 37°C, 0 min): 100.00%
- Remaining rate (%) 15 min ([1]; Human plasma, 37°C, 15 min): 100.68%
- Remaining rate (%) 30 min ([1]; Human plasma, 37°C, 30 min): 101.72%
- Remaining rate (%) 60 min ([1]; Human plasma, 37°C, 60 min): 97.62%
- Remaining rate (%) 120 min ([1]; Human plasma, 37°C, 120 min): 88.35%
- half-life ([1]; Human plasma, 37°C): 31.4 h
- IC50 (GP2D; Homo sapiens, GP2d, 72 h): 1.2 nM
- IC50 (p-ERK in AGS cells): 7 nM

Molecule: 4-((5S,5aS,6R,9S)-12-((1-((((R)-4-(difluoromethylene)-2-methylpiperidin-1-yl)methyl)cyclopropyl)methoxy)-1-fluoro-5-(methyl-d3)-5a,6,7,8,9,10-hexahydro-5H-4-oxa-3,10a,11,13,14-pentaaza-6,9-methylnaphtho[1,8-ab]hept-2-yl)-5-ethynyl-6-fluoronaphthalen-2-ol [Example 162]
- IC50 (AsPC-1; about 72 h): 4 nM
- IC50 (GP2D; proliferation, about 72 h, CellTiter-Glo): 0.2 nM

Molecule: [2H]C([2H])([2H])[C@@H]1Oc2nc(-c3cc(O)cc4ccc(F)c(C#C)c34)c(F)c3nc(OCC4(CN5CCC(=C(F)F)CC5)CC4)nc(c23)N2C[C@H]3CC[C@H](N3)[C@@H]12 [Example 161, 4-((5S,5aS,6S,9R)-12-((1-((4-(difluoromethylene)piperidin-1-yl)methyl)cyclopropyl)methoxy)-1-fluoro-5-(methyl-d3)-5a,6,7,8,9,10-hexahydro-5H-4-oxa-3,10a,11,13,14-pentaaza-6,9-methylnaphtho[1,8-ab]hept-2-yl)-5-ethynyl-6-fluoronaphthalen-2-ol]
- half-life ([1]; Human plasma, 37°C): 142 h
- Remaining rate (%) 0 min ([1]; human, plasma, 0 h): 100.00%
- Remaining rate (%) 15 min ([1]; human, plasma, 0.25 h): 93.48%
- Remaining rate (%) 30 min ([1]; human, plasma, 0.5 h): 92.44%
- Remaining rate (%) 60 min ([1]; human, plasma, 1 h): 95.19%
- Remaining rate (%) 120 min ([1]; human, plasma, 2 h): 97.25%
- IC50 (AsPC-1; [2]): 4.4 nM
- IC50 (GP2D; Homo sapiens, GP2d, 72 h): 0.24 nM
- IC50 (p-ERK in AGS cells): 4.9 nM

Molecule: C#Cc1c(F)ccc2cc(O)cc(-c3nc4c5c(nc(OCC6(CN7CCC(=C(F)F)CC7)CC6)nc5c3F)N3C[C@H]5CC[C@H](N5)[C@H]3[C@H](C)O4)c12 [Example 19-1, 4-((5S,5aS,6S,9R)-12-((1-((4-(difluoromethylene)piperidin-1-yl)methyl)cyclopropyl)methoxy)-1-fluoro-5-methyl-5a,6,7,8,9,10-hexahydro-5H-4-oxa-3,10a,11,13,14-pentaaza-6,9-methylnaphtho[1,8-ab]hept-2-yl)-5-ethynyl-6-fluoronaphthalene-2-ol]
- Remaining rate (%) 0 min ([1]; Human plasma, 37°C, 0 min): 100.00%
- Remaining rate (%) 15 min ([1]; Human plasma, 37°C, 15 min): 95.61%
- Remaining rate (%) 30 min ([1]; Human plasma, 37°C, 30 min): 93.15%
- Remaining rate (%) 60 min ([1]; Human plasma, 37°C, 60 min): 85.08%
- Remaining rate (%) 120 min ([1]; Human plasma, 37°C, 120 min): 83.37%
- half-life ([1]; Human plasma, 37°C): 15.5 h
- IC50 (AsPC-1; [2]): 3.1 nM
- IC50 (GP2D; Homo sapiens, GP2d, 72 h): 0.16 nM
- IC50 (p-ERK in AGS cells): 5.6 nM
